For one test, the system named is recruited BALF cells. As to the kind of experiment: LPS induced lung inflammation model (in-LPS test). The test is classed as in vivo, mouse. As to conditions: versus inLPS Vehicle group. The method, then: The aim of the assay is to assess the effect of a test compound in a mouse model of acute lung inflammation induced by intranasal instillation of LPS. The impact on the induced cells recruitment in lung is evaluated by measurement of white cells count in broncho-alveolar lavage (BAL) fluid with VetABC device (medical solution gmbh, Rothusstrasse 23, 6331 Hunenberg, Switzerland).
The animals (BALB/c J mice, 18-20 g) are obtained from Harlan Laboratories (Maison-Alfort, France). The animals are maintained on 12 hours light/dark cycle at 22° C. with ad libitum access to tap water and food. Litters are changed twice a week. For each tested compound, a group of 10 subjects is used. In addition to the test compound-treated groups, a vehicle+LPS control group (inLPS), a non-treated group (intact), and a positive control dexamethasone treated group (DEX) are used.
LPS is dissolved in saline solution in order to obtain a final 10 μg/50 μL solution for intranasal instillation, and administered at 50 μL/mouse by intranasal instillation.
The test compounds are prepared in 15 mL PEG200 (9 mL)/H2O (6 mL) to be dosed in a range of 0.3, 1, 3, 10, and 30 mg/kg, and then kept at room temperature in the dark, and are administered once (qd) or twice daily (bid) over 2 days.
Dexamethasone (10 mg/kg, bid, po) is used as a positive control.
On day 1, mice are anaesthetized by isoflurane inhalation. During breathing, LPS solution is instilled intra-nasally and mice are monitored until complete recovery from anaesthesia.
On day 2, mice are anaesthetized by intra-peritoneal injection (under a volume of 10 mL/kg) of anaesthetic solution (18 mL NaCl 0.9%+0.5 mL xylazine (5 mg/kg)+1.5 mL ketamine (75 mg/kg)).
The trachea is canulated with a catheter, and BAL is performed by 2×0.75 mL sterile PBS. The BAL fluid removed is shaked gently at room temperature before centrifugation at 1500 r.p.m. during 10 min at 4° C.
The supernatant is removed and the cell pellet is suspended in 200 μL of PBS, kept on ice and total cell count is processed with VetABC device. Finally, mice are sacrificed under anaesthesia.
For each readout, mean and sem are calculated. A difference statistically significant between intact or treated groups and inLPS Vehicle group is evaluated with Prism® software using a one-way ANOVA (for treatment groups) followed by a Student test. *: p<0.05; **: p<0.01; ***: p<0.001 versus inLPS Vehicle group.

Test [1] addresses T1, hENPP2 (UniProtKB/SwissProt Sequence ref Q13822) (Homo sapiens (Human), UniProt Q13822). As to the kind of experiment: LPC hENPP2 assay (choline release, LPC as substrate). The format is biochemical. Put shortly: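 Detection is coupled: choline oxidase produces peroxide, which HRP uses to form quinoneimine dye from TOOS and 4-aminoantipyrine, read at 555 nm. The reaction is stopped with 20 mM EGTA in the developer mix, then incubated 30 min at room temperature; inhibition lowers signal.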

Test [2] has as its target T1, hENPP2. The test is described as follows: FS3 hENPP2 assay (fluorogenic substrate FS-3). To be noted: hENPP2, FS-3 as substrate. The test is classed as biochemical. An outline of the steps: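 Compound dilutions (1/5 steps, top concentration as added 20 μM) were preincubated 30 min at room temperature with hENPP2 (0.4 or 0.64 μg/mL final) in pH 8.0 Tris buffer containing NaCl, KCl, MgCl2, CaCl2 and 0.1% fatty-acid-free BSA. FS-3 (0.75 μM as added) was then hydrolysed for 30 min at 30 °C, and fluorescence was read at 485/520 nm.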

The test system of the next test is LPA 18:2. The test is described as follows: Rat whole blood (plasma) LPA assay. The format is biochemical. Here is the method: Whole blood is collected from rats or mouse by exsanguinations on sodium heparin tube, then after centrifugation at 3000 rpm for 15 min at 4° C., plasma is stored at −80° C. Compounds are diluted in DMSO in concentration dependent manner then 0.5 μL are dispensed into 96-wells plate placed in ice. Plasma is defrosted on ice then 49.5 μL of plasma are added into the well containing 0.5 μL of compound (1% DMSO final). Plates are covered with a lid in polypropylene and incubated at +37° C., 5% CO2, for 2 h under gentle shaking (except controls which are stored at −20° C.).
At the end of the incubation, controls are defrosted in ice and transferred in the incubated plates for LC-MS/MS analysis with a non GLP-validated method. For the analysis, plasma proteins from a 10 μL incubated plates are precipitated with an excess of methanol containing the internal standard, LPA 17:0. After centrifugation, the corresponding supernatant is injected on a C18 column. Analytes are eluted out of the column under isocratic conditions. An API5500 QTRAP mass spectrometer (ABSciex™) is used for the detection of LPA 18:2. No calibration curve is prepared for LPA 18:2, however relative quantities are evaluated based on the peak area.

Test [3] concerns cells recovered in the BALF. The test is described as follows: Tobacco smoke (TS) model, lungs inflammatory cells recruitment. To be noted: TS-exposed mice. The test is classed as in vivo, mouse. The method, then:
The aim of this experiment is to evaluate the efficacy and potency of a test compound administered p.o., once or twice daily on days 6 to 11, vs reference compounds, on pulmonary inflammation induced by 11 days of TS-exposure in female C57BL/6J mice, by assessing the effect of a test compound on the tobacco smoke induced recruitment of inflammatory cells to the lungs.
The test compounds are formulated in PEG200/0.5% methylcellulose (25/75, v/v) and are given at a dose volume of 10 mL/kg. Roflumilast and Dexamethasone are included as positive […] control, respectively. Each treatment group consists of 10 mice.
A first group of mice is subjected to daily TS-exposure for 5 consecutive days and sacrificed on the day 6, 24 h after the final TS-exposure.
A second group is exposed to air for 5 consecutive days (sham exposure) and sacrificed on the day 6, 24 h after the final air-exposure.
Compound and reference-treated groups are subjected to daily TS-exposure for 11 consecutive days and sacrificed on the day 12, 24 h after the final TS-exposure. Mice are dosed p.o. on days 6 to 11, twice daily, 1 h prior to and 6 h after each TS-exposure, with either vehicle, or the test compound at 3, 5, 10 or 30 mg/kg. Another group is dosed p.o. on days 6 to 11, once daily, 1 h prior to each TS-exposure, with either vehicle, or the test compound at a selected dose, for example 10 mg/kg.
An additional group is dosed p.o., once daily, on days 6 to 11, with roflumilast at 5 mg/kg, 1 h prior to each TS-exposure. Dexamethasone is dosed p.o., twice daily, on days 6 to 11, at 0.3 mg/kg, 1 h prior to and 6 h after each TS-exposure.
For each mouse, a BAL is performed using 0.4 mL of PBS. […]
The lungs are dissected out and the left lobes are removed, snap-frozen and stored at −80° C. […] Cell data are presented as individual data points for each animal and the mean value calculated for each group. […]
Percentage inhibitions for the cell data are calculated using the formula below: […]

Structures are written as SMILES.

In the case of `CCc1nc2ccc(N3CCN(CC(=O)N4CC[C@H](O)C4)CC3)nn2c1N(C)c1nc(-c2ccc(F)cc2)cs1` [Compound 34, (S)-2-(4-(2-ethyl-3-((4-(4-fluorophenyl)thiazol-2-yl)(methyl)amino)imidazo[1,2-b]pyridazin-6-yl)piperazin-1-yl)-1-(3-hydroxypyrrolidin-1-yl)ethanone], the “Effect significance on recruited BALF cells” value (“Effect significance” for short) in the test on recruited BALF cells (10 mg/kg bid po) is recorded as “* (*: p<0.05)”. Besides, the figures for the IC50 against hENPP2 [1] and on hENPP2 [2] were 100 to 500 nM and 0.01 to 25 nM, respectively.
In the same order, the values of `CCc1nc2ccc(N3CCN(CC(=O)N4CC[C@@H](O)C4)CC3)nn2c1N(C)c1nc(-c2ccc(F)cc2)cs1` [Cpd 33, (R)-2-(4-(2-ethyl-3-((4-(4-fluorophenyl)thiazol-2-yl)(methyl)amino)imidazo[1,2-b]pyridazin-6-yl)piperazin-1-yl)-1-(3-hydroxypyrrolidin-l-yl)ethanone] are “** (**: p<0.01)”, 100 to 500 nM and 0.01 to 25 nM.
As to `CCc1nc2ccc(N3CCN(CC(=O)N(C)C)CC3)nn2c1N(C)c1nc(-c2ccc(F)cc2)cs1` [Cpd 42, 2-(4-(2-ethyl-3-((4-(4-fluorophenyl)thiazol-2-yl)(methyl)amino)imidazo[1,2-b]pyridazin-6-yl)piperazin-1-yl)-N,N-dimethylacetamide], the “Effect significance” value in the test on recruited BALF cells (3 mg/kg bid po) and with recruited BALF cells (30 mg/kg bid po) was “*** (***: p<0.001)” in each case. Moreover, the IC50 with LPA 18:2 was in the range of 100 to 500 nM; at hENPP2 [1], 100 to 500 nM; against hENPP2 [2], 0.01 to 25 nM.
Consider `CCc1nc2ccc(N3CCN(CC(=O)N(C)C)CC3)nn2c1N(C)c1nc(-c2ccc(F)cc2)c(C#N)s1` [Compound 44, 2-(4-(3-((5-cyano-4-(4-fluorophenyl)thiazol-2-yl)(methyl)amino)-2-ethylimidazo[1,2-b]pyridazin-6-yl)piperazin-1-yl)-N,N-dimethylacetamide], for which, in the test on recruited BALF cells (3 mg/kg bid po), the “Effect significance” value is “** (**: p<0.01)”. Moreover, the half-maximal inhibitory concentration (IC50) on hENPP2 [1] lay in the range of 0.01 to 100 nM.
With `CCc1nc2ccc(C3CCN(CC(=O)N4CC(O)C4)CC3)nn2c1N(C)c1nc(-c2ccc(F)cc2)cs1` [Cpd 201, 2-(4-(2-ethyl-3-((4-(4-fluorophenyl)thiazol-2-yl)(methyl)amino)imidazo[1,2-b]pyridazin-6-yl)piperidin-1-yl)-1-(3-hydroxyazetidin-1-yl)ethanone], the “Effect significance” value in the test with recruited BALF cells (10 mg/kg bid po) was “** (**: p<0.01)”. For the same molecule, the IC50 was in the range of 100 to 500 nM at hENPP2 [1] and 0.01 to 25 nM on hENPP2 [2].
As to `CCc1nc2cnc(C3CCN(CC(=O)N4CC(O)C4)CC3)cn2c1N(C)c1nc(-c2ccc(F)cc2)c(C#N)s1` [Cpd 23, 2-((2-ethyl-6-(1-(2-(3-hydroxyazetidin-1-yl)-2-oxoethyl)piperidin-4-yl)imidazo[1,2-a]pyrazin-3-yl)(methyl)amino)-4-(4-fluorophenyl) thiazole-5-carbonitrile], the IC50 lay within 100 to 500 nM with LPA 18:2, 100 to 500 nM on hENPP2 [1] and 0.01 to 25 nM against hENPP2 [2].
Turning to `CCc1nc2cnc(N3CCN(CC(=O)N4CC(O)C4)CC3)cn2c1N(C)c1nc(-c2ccc(F)cc2)c(C#N)s1` [Cpd 2, 2-((2-ethyl-6-(4-(2-(3-hydroxyazetidin-1-yl)-2-oxoethyl)piperazin-1-yl)imidazo[1,2-a]pyrazin-3-yl)(methyl)amino)-4-(4-fluorophenyl) thiazole-5-carbonitrile], the “number of cells recovered in the BALF (macrophage cells, epithelial cells, neutrophils)” value in test [3] (3 mg/kg twice daily p.o.) and in test [3] (10 mg/kg twice daily p.o.) was “significantly inhibited” throughout. Moreover, the IC50 in the test on LPA 18:2 is more than 1000 nM; on hENPP2 [1] it was 100 to 500 nM.
Regarding `CCc1nc2cnc(N3CCN(CC(=O)N(C)C)CC3)cn2c1N(C)c1nc(-c2ccc(F)cc2)c(C#N)s1` [Cpd 5, 2-(4-(3-((5-cyano-4-(4-fluorophenyl)thiazol-2-yl)(methyl)amino)-2-ethylimidazo[1,2-a]pyrazin-6-yl)piperazin-1-yl)-N,N-dimethylacetamide], the IC50 was more than 1000 nM in the test with LPA 18:2, 100 to 500 nM against hENPP2 [1] and 0.01 to 25 nM against hENPP2 [2].
Consider `CCc1nc2cnc(N3CCN(C(=O)CN4CC(O)C4)CC3)cn2c1N(C)c1nc(-c2ccc(F)cc2)c(C#N)s1` [Cpd 12, 2-((2-ethyl-6-(4-(2-(3-hydroxyazetidin-1-yl)acetoyl)piperazin-1-yl)imidazo[1,2-a]pyrazin-3-yl)(methyl)amino)-4-(4-fluorophenyl) thiazole-5-carbonitrile], for which the “number of cells recovered in the BALF (macrophage cells, epithelial cells, neutrophils)” value in test [3] (10 mg/kg twice daily p.o.) is “significantly inhibited”. In addition, the values for the IC50 in the test with LPA 18:2, against hENPP2 [1] and against hENPP2 [2] were more than 1000 nM, more than 1000 nM and 0.01 to 25 nM, respectively.

Usually IC50 stands for the concentration needed to halve the response being measured. The low end stands for higher potency, the high end for lower potency.

Source of the values: patent US9796719B2, “Compounds and pharmaceutical compositions thereof for the treatment of inflammatory disorders” (GALAPAGOS NV, priority 2013, dated 2017).
